Reference: article PMC7500638, “Dissecting the antibacterial activity of oxadiazolone-core derivatives against Mycobacterium abscessus” (PLoS ONE, 2020)

Target: T1, Ag85CMabs (Ag85C, MAB_0175) (Mycobacteroides abscessus, UniProt B1MEL1)
T1 construct: C-terminal 6His-tag; pMyC vector, expressed in M. smegmatis delta-groEL1
Test: competitive TAMRA-FP activity-based probe labelling, in-gel fluorescence
Format: binding
Settings: covalent; 14 uM enzyme, 1 h preincubation, 10 mM Tris pH 8, 150 mM NaCl, 0.1% Triton X-100; catalytic Ser124

T1 sequence (B1MEL1 entry or part of it): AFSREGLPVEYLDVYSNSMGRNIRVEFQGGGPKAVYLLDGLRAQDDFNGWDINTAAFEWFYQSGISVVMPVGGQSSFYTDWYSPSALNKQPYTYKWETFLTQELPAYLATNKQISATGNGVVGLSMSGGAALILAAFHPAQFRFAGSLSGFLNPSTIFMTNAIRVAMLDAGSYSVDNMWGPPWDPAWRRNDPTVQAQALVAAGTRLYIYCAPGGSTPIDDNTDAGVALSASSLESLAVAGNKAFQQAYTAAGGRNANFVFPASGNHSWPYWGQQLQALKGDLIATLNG

## CC(C)COc1nn(-c2ccc(Oc3ccccc3)cc2)c(=O)o1 [iBpPPOX]
  % loss of TAMRA-FP labelling at E/I 1:75: > 90%
